# Source: ChEMBL document CHEMBL4715826, “Selective PPARδ Modulators Improve Mitochondrial Function: Potential Treatment for Duchenne Muscular Dystrophy (DMD)” (ACS Med Chem Lett, 2018)
# Target: T1, Peroxisome proliferator-activated receptor delta (Homo sapiens, UniProt Q03181)
# T1 sequence (Q03181 whole entry): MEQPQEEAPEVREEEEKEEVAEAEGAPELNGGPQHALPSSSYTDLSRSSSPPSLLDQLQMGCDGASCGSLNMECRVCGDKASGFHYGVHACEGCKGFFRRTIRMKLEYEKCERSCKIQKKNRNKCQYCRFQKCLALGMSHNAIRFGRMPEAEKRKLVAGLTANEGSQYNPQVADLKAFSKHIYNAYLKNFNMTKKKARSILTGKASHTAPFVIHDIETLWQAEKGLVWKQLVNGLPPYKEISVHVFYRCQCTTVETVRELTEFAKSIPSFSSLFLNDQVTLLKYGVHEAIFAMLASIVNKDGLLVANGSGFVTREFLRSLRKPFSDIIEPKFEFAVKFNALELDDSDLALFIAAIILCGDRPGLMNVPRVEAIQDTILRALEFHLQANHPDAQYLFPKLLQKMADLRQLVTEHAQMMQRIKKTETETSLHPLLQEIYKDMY
# Details: not given
row,Structure (SMILES),EC50
1,C/C(=C\COc1ccccc1Cc1c(C)ncn1-c1ccc(-c2ccco2)cc1)CCC(=O)O,0.059 µM
2,C/C(=C\COc1ccccc1Cn1c(C)cnc1-c1ccc(OC(F)(F)F)cc1)CCC(=O)O,0.0003 µM
3,C/C(=C\COc1ccccc1Cc1sc(C)nc1-c1ccc(-c2ccco2)cc1)CCC(=O)O,0.0095 µM
4,Cc1cnc(-c2ccc(Cl)cc2)n1Cc1ccccc1OCCC[C@@H](C)CC(=O)O,0.0055 µM
5,C/C(=C\COc1ccccc1Cc1c(-c2ccc(-c3ccco3)cc2)noc1C)CCC(=O)O,0.0015 µM
6,C/C(=C\COc1ccccc1Cc1c(-c2ccc(-c3ccco3)cc2)ncn1C)CCC(=O)O,0.0013 µM
7,Cc1ccc(-c2ncc(C)n2Cc2ccccc2OCCC[C@@H](C)CC(=O)O)cc1,0.02 µM
8,C/C(=C\COc1ccccc1Cc1c(C)nnn1-c1ccc(-c2ccco2)cc1)CCC(=O)O,0.0084 µM
9,Cc1cnc(-c2ccc(-c3ccco3)cc2)n1Cc1ccccc1OCCCCCC(=O)O,0.0007 µM

# Test system: not listed separately
# Assay: AUC in CD-1 mouse at 3 mg/kg, iv
# Format: ADME, organism-based
# Parameters: dose 3 mg/kg
# Details: in vivo
row,Structure (SMILES),AUC
1,C/C(=C\COc1ccccc1Cc1c(C)ncn1-c1ccc(-c2ccco2)cc1)CCC(=O)O,70 ng·h/mL
2,C/C(=C\COc1ccccc1Cc1sc(C)nc1-c1ccc(-c2ccco2)cc1)CCC(=O)O,900 ng·h/mL
3,Cc1cnc(-c2ccc(-c3ccco3)cc2)n1Cc1ccccc1OCCCCC(C)(C)C(=O)O,400 ng·h/mL
4,C/C(=C\COc1ccccc1Cc1c(-c2ccc(-c3ccco3)cc2)noc1C)CCC(=O)O,280 ng·h/mL
5,Cc1cnc(-c2ccc(-c3ccco3)cc2)n1Cc1ccccc1OCCC[C@@H](C)CC(=O)O,650 ng·h/mL
6,C/C(=C\COc1ccccc1Cn1c(C)cnc1-c1ccc(-c2ccco2)cc1)CCC(=O)O,300 ng·h/mL
7,C/C(=C\COc1ccccc1Cc1c(-c2ccc(-c3ccco3)cc2)ncn1C)CCC(=O)O,170 ng·h/mL
8,C/C(=C\COc1ccccc1Cc1c(C)nnn1-c1ccc(-c2ccco2)cc1)CCC(=O)O,220 ng·h/mL
9,Cc1cnc(-c2ccc(-c3ccco3)cc2)n1Cc1ccccc1OCCCCCC(=O)O,180 ng·h/mL
10,C/C(=C\COc1ccccc1Cc1c(C)n[nH]c1-c1ccc(-c2ccco2)cc1)CCC(=O)O,380 ng·h/mL

# Test system: not listed separately
# Assay: Half life in CD-1 mouse at 1 mg/kg, iv
# Format: ADME, organism-based
# Details: in vivo
row,Structure (SMILES),half-life
1,Cc1cnc(-c2ccc(Cl)cc2)n1Cc1ccccc1OCCC[C@@H](C)CC(=O)O,84 min
2,Cc1cnc(-c2ccc(Cl)c(F)c2)n1Cc1ccccc1OCCC[C@@H](C)CC(=O)O,258 min

# Test system: not listed separately
# Assay: AUC in CD-1 mouse at 1 mg/kg, iv
# Format: ADME, organism-based
# Parameters: dose 1 mg/kg
# Details: in vivo
row,Structure (SMILES),AUC
1,C/C(=C\COc1ccccc1Cn1c(C)cnc1-c1ccc(OC(F)(F)F)cc1)CCC(=O)O,240 ng·h/mL
2,Cc1cnc(-c2ccc(Cl)cc2)n1Cc1ccccc1OCCC[C@@H](C)CC(=O)O,752 ng·h/mL
3,Cc1cnc(-c2ccc(Cl)c(F)c2)n1Cc1ccccc1OCCC[C@@H](C)CC(=O)O,440 ng·h/mL

# Test system: not listed separately
# Assay: Selectivity index, ratio of EC50 for transactivation of GAL4-fused PPARalpha LBD (unknown origin) transfected in CV1 cells to EC50 for transactivation of GAL4-fused human PPARdelta LBD (128 to residue at C-terminus) transfected in African green monkey CV1 cells by luciferase reporter gene assay
# Details: not given
row,Structure (SMILES),Ratio EC50
1,C/C(=C\COc1ccccc1Cc1c(C)ncn1-c1ccc(-c2ccco2)cc1)CCC(=O)O,>1000
2,C/C(=C\COc1ccccc1Cc1sc(C)nc1-c1ccc(-c2ccco2)cc1)CCC(=O)O,>1000
3,C/C(=C\COc1ccccc1Cc1c(-c2ccc(-c3ccco3)cc2)noc1C)CCC(=O)O,>1000
4,C/C(=C\COc1ccccc1Cn1c(C)cnc1-c1ccc(-c2ccco2)cc1)CCC(=O)O,>1000
5,C/C(=C\COc1ccccc1Cc1c(-c2ccc(-c3ccco3)cc2)ncn1C)CCC(=O)O,>1000
6,C/C(=C\COc1ccccc1Cc1c(C)nnn1-c1ccc(-c2ccco2)cc1)CCC(=O)O,>1000
7,C/C(=C\COc1ccccc1Cc1c(C)n[nH]c1-c1ccc(-c2ccco2)cc1)CCC(=O)O,>1000

# Target: T2, Peroxisome proliferator-activated receptor alpha (Homo sapiens, UniProt Q07869)
# T2 sequence (Q07869 whole entry): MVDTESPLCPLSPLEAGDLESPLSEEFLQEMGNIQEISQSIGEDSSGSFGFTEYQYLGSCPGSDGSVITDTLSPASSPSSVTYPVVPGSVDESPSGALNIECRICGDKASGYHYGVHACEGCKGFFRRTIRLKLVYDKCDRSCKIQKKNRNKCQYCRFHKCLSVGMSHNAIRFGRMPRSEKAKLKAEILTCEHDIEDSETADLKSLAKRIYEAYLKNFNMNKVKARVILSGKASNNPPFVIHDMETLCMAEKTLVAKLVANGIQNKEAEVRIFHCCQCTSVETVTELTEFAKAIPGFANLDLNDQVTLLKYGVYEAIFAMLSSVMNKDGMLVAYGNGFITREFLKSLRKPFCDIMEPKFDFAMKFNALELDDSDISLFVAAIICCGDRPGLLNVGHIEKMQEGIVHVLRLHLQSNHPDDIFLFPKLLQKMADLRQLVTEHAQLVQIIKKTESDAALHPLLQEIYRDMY
# Assay: Modulator activity at GAL4-fused human PPARalpha LBD (unknown origin) transfected in African green monkey CV1 cells assessed as receptor transactivation by luciferase reporter gene assay
# Format: cell-based, CV-1
# Details: not given
row,Structure (SMILES),EC50
1,C/C(=C\COc1ccccc1Cn1c(C)cnc1-c1ccc(OC(F)(F)F)cc1)CCC(=O)O,2.29 µM
2,Cc1cnc(-c2ccc(OC(F)F)cc2)n1Cc1ccccc1OCCC[C@@H](C)CC(=O)O,15.1 µM
3,C/C(=C\COc1ccccc1Cc1sc(C)nc1-c1ccc(-c2ccco2)cc1)CCC(=O)O,7.25 µM
4,Cc1cnc(-c2ccc(Cl)cc2)n1Cc1ccccc1OCCC[C@@H](C)CC(=O)O,> 100 µM
5,C/C(=C\COc1ccccc1Cc1c(-c2ccc(-c3ccco3)cc2)noc1C)CCC(=O)O,5.84 µM
6,Cc1cnc(-c2ccc(-c3ccco3)cc2)n1Cc1ccccc1OCCC[C@@H](C)CC(=O)O,> 100 µM
7,Cc1cnc(-c2ccc(F)cc2)n1Cc1ccccc1OCCC[C@@H](C)CC(=O)O,> 100 µM
8,C/C(=C\COc1ccccc1Cn1c(C)cnc1-c1ccc(-c2ccco2)cc1)CCC(=O)O,1.23 µM
9,C/C(=C\COc1ccccc1Cc1c(-c2ccc(-c3ccco3)cc2)ncn1C)CCC(=O)O,0.412 µM
10,Cc1cnc(-c2ccc(Cl)c(F)c2)n1Cc1ccccc1OCCC[C@@H](C)CC(=O)O,69 µM
11,Cc1ccc(-c2ncc(C)n2Cc2ccccc2OCCC[C@@H](C)CC(=O)O)cc1,78.5 µM
12,C/C(=C\COc1ccccc1Cc1c(C)nnn1-c1ccc(-c2ccco2)cc1)CCC(=O)O,16.8 µM
13,Cc1cnc(-c2ccc(-c3ccco3)cc2)n1Cc1ccccc1OCCCCCC(=O)O,6.97 µM
14,C/C(=C\COc1ccccc1Cc1c(C)n[nH]c1-c1ccc(-c2ccco2)cc1)CCC(=O)O,13.1 µM

# Test system: not listed separately
# Assay: Clearance in CD-1 mouse at 3 mg/kg, iv
# Format: ADME, organism-based
# Details: in vivo
row,Structure (SMILES),clearance
1,C/C(=C\COc1ccccc1Cc1c(C)ncn1-c1ccc(-c2ccco2)cc1)CCC(=O)O,720 mL/min/kg
2,C/C(=C\COc1ccccc1Cn1c(C)cnc1-c1ccc(OC(F)(F)F)cc1)CCC(=O)O,70 mL/min/kg
3,C/C(=C\COc1ccccc1Cc1sc(C)nc1-c1ccc(-c2ccco2)cc1)CCC(=O)O,55 mL/min/kg
4,Cc1cnc(-c2ccc(-c3ccco3)cc2)n1Cc1ccccc1OCCCCC(C)(C)C(=O)O,120 mL/min/kg
5,C/C(=C\COc1ccccc1Cc1c(-c2ccc(-c3ccco3)cc2)noc1C)CCC(=O)O,180 mL/min/kg
6,Cc1cnc(-c2ccc(-c3ccco3)cc2)n1Cc1ccccc1OCCC[C@@H](C)CC(=O)O,73 mL/min/kg
7,C/C(=C\COc1ccccc1Cn1c(C)cnc1-c1ccc(-c2ccco2)cc1)CCC(=O)O,160 mL/min/kg
8,C/C(=C\COc1ccccc1Cc1c(-c2ccc(-c3ccco3)cc2)ncn1C)CCC(=O)O,300 mL/min/kg
9,C/C(=C\COc1ccccc1Cc1c(C)nnn1-c1ccc(-c2ccco2)cc1)CCC(=O)O,225 mL/min/kg
10,C/C(=C\COc1ccccc1Cc1c(C)n[nH]c1-c1ccc(-c2ccco2)cc1)CCC(=O)O,130 mL/min/kg

# Target: T3, Peroxisome proliferator-activated receptor gamma (Homo sapiens, UniProt P37231)
# T3 sequence (P37231 whole entry): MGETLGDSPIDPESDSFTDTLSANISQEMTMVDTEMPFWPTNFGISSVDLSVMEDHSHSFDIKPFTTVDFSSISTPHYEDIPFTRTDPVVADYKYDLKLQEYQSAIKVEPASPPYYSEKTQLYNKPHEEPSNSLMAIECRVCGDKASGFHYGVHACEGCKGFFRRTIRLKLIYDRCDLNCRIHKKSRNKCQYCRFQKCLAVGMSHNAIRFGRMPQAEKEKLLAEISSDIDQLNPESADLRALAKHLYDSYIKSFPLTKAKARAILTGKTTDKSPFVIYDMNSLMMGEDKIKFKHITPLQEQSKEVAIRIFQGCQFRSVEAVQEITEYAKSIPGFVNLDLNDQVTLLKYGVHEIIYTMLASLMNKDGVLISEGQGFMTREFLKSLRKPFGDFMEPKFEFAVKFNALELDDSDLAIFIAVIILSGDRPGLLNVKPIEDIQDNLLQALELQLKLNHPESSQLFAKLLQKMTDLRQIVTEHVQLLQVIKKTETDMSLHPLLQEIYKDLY
# Assay: Modulator activity at GAL4-fused human PPARgamma LBD (unknown origin) transfected in African green monkey CV1 cells assessed as receptor transactivation by luciferase reporter gene assay
# Format: cell-based, CV-1
# Details: not given
row,Structure (SMILES),EC50
1,C/C(=C\COc1ccccc1Cc1c(C)ncn1-c1ccc(-c2ccco2)cc1)CCC(=O)O,> 10 µM
2,C/C(=C\COc1ccccc1Cn1c(C)cnc1-c1ccc(OC(F)(F)F)cc1)CCC(=O)O,> 10 µM
3,Cc1cnc(-c2ccc(OC(F)F)cc2)n1Cc1ccccc1OCCC[C@@H](C)CC(=O)O,> 10 µM
4,C/C(=C\COc1ccccc1Cc1sc(C)nc1-c1ccc(-c2ccco2)cc1)CCC(=O)O,> 10 µM
5,Cc1cnc(-c2ccc(-c3ccco3)cc2)n1Cc1ccccc1OCCCCC(C)(C)C(=O)O,> 10 µM
6,Cc1cnc(-c2ccc(Cl)cc2)n1Cc1ccccc1OCCC[C@@H](C)CC(=O)O,> 10 µM
7,C/C(=C\COc1ccccc1Cc1c(-c2ccc(-c3ccco3)cc2)noc1C)CCC(=O)O,> 10 µM
8,Cc1cnc(-c2ccc(-c3ccco3)cc2)n1Cc1ccccc1OCCC[C@@H](C)CC(=O)O,> 10 µM
9,Cc1cnc(-c2ccc(F)cc2)n1Cc1ccccc1OCCC[C@@H](C)CC(=O)O,> 10 µM
10,C/C(=C\COc1ccccc1Cn1c(C)cnc1-c1ccc(-c2ccco2)cc1)CCC(=O)O,> 10 µM
11,C/C(=C\COc1ccccc1Cc1c(-c2ccc(-c3ccco3)cc2)ncn1C)CCC(=O)O,> 10 µM
12,Cc1cnc(-c2ccc(Cl)c(F)c2)n1Cc1ccccc1OCCC[C@@H](C)CC(=O)O,> 10 µM
13,Cc1ccc(-c2ncc(C)n2Cc2ccccc2OCCC[C@@H](C)CC(=O)O)cc1,> 10 µM
14,C/C(=C\COc1ccccc1Cc1c(C)nnn1-c1ccc(-c2ccco2)cc1)CCC(=O)O,> 10 µM
15,Cc1cnc(-c2ccc(-c3ccco3)cc2)n1Cc1ccccc1OCCCCCC(=O)O,> 10 µM
16,C/C(=C\COc1ccccc1Cc1c(C)n[nH]c1-c1ccc(-c2ccco2)cc1)CCC(=O)O,5.53 µM

# Test system: not listed separately
# Assay: Half life in CD-1 mouse at 3 mg/kg, iv
# Format: ADME, organism-based
# Details: in vivo
row,Structure (SMILES),half-life
1,C/C(=C\COc1ccccc1Cc1c(C)ncn1-c1ccc(-c2ccco2)cc1)CCC(=O)O,42 min
2,C/C(=C\COc1ccccc1Cn1c(C)cnc1-c1ccc(OC(F)(F)F)cc1)CCC(=O)O,186 min
3,C/C(=C\COc1ccccc1Cc1sc(C)nc1-c1ccc(-c2ccco2)cc1)CCC(=O)O,48 min
4,Cc1cnc(-c2ccc(-c3ccco3)cc2)n1Cc1ccccc1OCCCCC(C)(C)C(=O)O,144 min
5,C/C(=C\COc1ccccc1Cc1c(-c2ccc(-c3ccco3)cc2)noc1C)CCC(=O)O,12 min
6,Cc1cnc(-c2ccc(-c3ccco3)cc2)n1Cc1ccccc1OCCC[C@@H](C)CC(=O)O,84 min
7,C/C(=C\COc1ccccc1Cn1c(C)cnc1-c1ccc(-c2ccco2)cc1)CCC(=O)O,30 min
8,C/C(=C\COc1ccccc1Cc1c(-c2ccc(-c3ccco3)cc2)ncn1C)CCC(=O)O,48 min
9,C/C(=C\COc1ccccc1Cc1c(C)nnn1-c1ccc(-c2ccco2)cc1)CCC(=O)O,12 min
10,Cc1cnc(-c2ccc(-c3ccco3)cc2)n1Cc1ccccc1OCCCCCC(=O)O,18 min
11,C/C(=C\COc1ccccc1Cc1c(C)n[nH]c1-c1ccc(-c2ccco2)cc1)CCC(=O)O,24 min
